The results in this text go back to patent US11324725B2, “Compositions and methods for the inhibition of pruritus” (The United States of America, as represented by the …, priority 2017, dated 2022).

SMILES strings stand for the structures. Entries after “also recorded” stand apart in the source; their conditions may differ.

The target of this experiment is T1, hNpr2 (Homo sapiens, UniProt P20594).
T1 sequence (P20594 23-1047): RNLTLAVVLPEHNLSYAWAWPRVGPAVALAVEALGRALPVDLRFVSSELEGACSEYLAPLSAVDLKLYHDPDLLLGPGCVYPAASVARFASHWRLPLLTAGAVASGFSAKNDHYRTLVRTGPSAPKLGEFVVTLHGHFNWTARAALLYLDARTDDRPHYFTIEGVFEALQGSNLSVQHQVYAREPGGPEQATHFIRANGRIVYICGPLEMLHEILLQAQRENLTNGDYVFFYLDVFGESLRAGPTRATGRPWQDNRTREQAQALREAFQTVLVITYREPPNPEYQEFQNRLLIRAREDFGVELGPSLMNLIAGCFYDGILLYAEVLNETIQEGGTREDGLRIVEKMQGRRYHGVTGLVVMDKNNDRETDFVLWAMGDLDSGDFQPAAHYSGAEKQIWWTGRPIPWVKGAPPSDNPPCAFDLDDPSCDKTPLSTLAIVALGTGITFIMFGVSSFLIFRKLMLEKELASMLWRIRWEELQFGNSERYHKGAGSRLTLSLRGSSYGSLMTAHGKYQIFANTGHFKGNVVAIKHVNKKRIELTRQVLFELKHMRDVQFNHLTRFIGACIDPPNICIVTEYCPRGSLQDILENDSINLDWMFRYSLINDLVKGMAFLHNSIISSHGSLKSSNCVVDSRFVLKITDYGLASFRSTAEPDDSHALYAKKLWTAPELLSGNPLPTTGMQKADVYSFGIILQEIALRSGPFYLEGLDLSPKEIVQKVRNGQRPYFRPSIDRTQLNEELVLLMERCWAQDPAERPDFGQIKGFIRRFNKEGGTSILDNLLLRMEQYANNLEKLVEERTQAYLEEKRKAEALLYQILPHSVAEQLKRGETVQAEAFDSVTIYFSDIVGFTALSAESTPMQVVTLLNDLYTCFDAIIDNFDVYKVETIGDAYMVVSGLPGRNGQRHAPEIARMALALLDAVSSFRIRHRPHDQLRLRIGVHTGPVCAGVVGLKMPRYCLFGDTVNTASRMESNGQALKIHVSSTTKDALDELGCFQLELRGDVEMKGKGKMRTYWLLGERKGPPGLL
In words: Counter-screen, Nppc-stimulated HEK-hNpr2-cGMP-sensor cells. The class given is cell-based. Conditions: for IC50 / Imax: 1 nM Nppc-stimulated; for Imax: read-out: Imax, HEK-hNpr2-cGMP-sensor cells, −100% = no agonist; for Inhibition of Nppc-induced hNpr2 activity (in words): HEK-hNpr2-cGMP-sensor cells. From the text:
In order to identify small molecular compounds that inhibit the Npr1 receptor a high-throughput assay to probe inhibition of the receptor guanylate cyclase Npr1 was developed. The assay was designed taking advantage of Promega's GloSensor™ technology (Promega, Madison, Wis.). This technology involves the expression of a cyclic guanosine monophosphate (cGMP) biosensor, comprised of a firefly luciferase variant that was coupled to the cGMP binding domain of human phosphodiesterase 5A, and loading of cells with a cell-permeable luciferase substrate to monitor cGMP production by Npr1 in real time in live cells. Briefly, human embryonic kidney 293 cells stably expressing the human Npr1 and the pGloSensor™-40F cGMP vector (“pGloSensor™-40F”) were generated. Stimulating these cells with the Npr1 agonists human NppA or NppB, luciferase-induced light production could be detected in a dose-dependent manner. HEK293 cells stably expressing human Npr2 and pGS-40F and cells only expressing pGS-40F were also generated to conduct secondary counter screens. In these cells, NppC or sodium nitroprusside were used to stimulate Npr2 or soluble guanylate cyclase which is endogenously expressed in HEK293 cells, respectively. The Npr2-NppC counter screen was employed to search for agents that minimally effected this agonist-receptor interaction. The Npr2-NppC system was used because the side effects of most drugs occur on related receptors. Npr1 and Npr2 are the most related receptors in sequence and function and there are no additional active receptor subtypes in this family of receptors. The procedure is described in detail below.
Counter-screens were performed with HEK293-hNpr2-cGMP-sensor and HEK293-cGMP-sensor cells. These cells were stimulated with 1 nM NppC or 50 μM sodium nitroprusside, respectively, but otherwise the assay was conducted as described for HEK-hNpr1-cGMP-sensor cells. Pre-agonist controls were the same for all three assays, but normalization of post-agonist data differed between assays. For HEK-hNpr1-cGMP-sensor cells, −100% activity in post-agonist data was defined as described for primary screening, while for HEK-hNpr2-cGMP-sensor and HEK-cGMP-sensor cells, the average signal of DMSO-treated wells with 2% GloSensor™ reagent and the respective agonist was defined as 0% and the average signal of wells without agonist as −100% activity and data were normalized accordingly. Compounds directly interacting with the pGloSensor™-40F reporter system in HEK293 cells stimulated with sodium nitroprusside were eliminated as false positives. Effects of compounds on HEK293 cells stimulated with NppC and stably expressing hNpr2 and pGS-40F were tested for receptor selectivity.

For the compound `Cl.O=C1Nc2ccccc2CN(CC2CCCCC2)C12CCNCC2` [JS-1, 4-(cyclohexylmethyl)-4,5-dihydrospiro[benzo[e][1,4]diazepine-3,4′-piperidin]-2(1H)-one hydrochloride], the IC50 stood at 7.2 ± 1.3 µM and the Imax was -106 ± 8%.

Regarding `O=C(Cc1ccc(Cl)cc1)N1Cc2ccccc2CC2(CCCN2CC2CCNC2)C1` (stereo not shown) [JS-2, 2-(4-chlorophenyl)-1-(1′-(pyrrolidin-3-ylmethyl)-1,5-dihydrospiro[benzo[c]azepine-4,2′-pyrrolidin]-2(3H)-yl)ethan-1-one], it took 6.4 ± 1.1 µM to reach half-maximal inhibition (IC50) and the Imax was -88 ± 5%.

`CCC(CC)c1cc([C@H]2CN3CC[C@H]2C[C@@H]3CNS(=O)(=O)c2cccs2)nc(-c2ccncc2)n1` [JS-3, N-(((2R,4S,5R)-5-(6-(pentan-3-yl)-2-(pyridin-4-yl)pyrimidin-4-yl)quinuclidin-2-yl)methyl)thiophene-2-sulfonamide]: inhibition was half-maximal at 17 ± 20 µM (IC50) and the Imax was -126 ± 23%.

In the case of `COc1cc(CN2CCC(C)(NC(C)=O)CC2)cc(-c2ccncc2)c1` [JS-4, N-(1-(3-methoxy-5-(pyridin-4-yl)benzyl)-4-methylpiperidin-4-yl)acetamide], inhibition was half-maximal at 11 ± 1.2 µM (IC50) and the Imax is -100 ± 5%.

`Cc1noc(C)c1-c1cc(-c2ccccc2Oc2ccccc2)cn2cncc12` [JS-5, 3,5-dimethyl-4-(6-(2-phenoxyphenyl)imidazo[1,5-a]pyridin-8-yl)isoxazole]: the IC50 was 12 ± 1.1 µM, the “Inhibition of Nppc-induced hNpr2 activity (in words)” value (“Inhibition” for short) is listed as “inhibited hNpr2 with similar potency to hNpr1; also recorded: antagonizes natriuretic peptide-induced activation” and the Imax is -97 ± 4%.

With `COc1ccccc1-c1n[nH]c2ncc(C(=O)NCc3cccnc3)nc12` [JS-6, 3-(2-methoxyphenyl)-N-(pyridin-3-ylmethyl)-1H-pyrazolo[3,4-b]pyrazine-5-carboxamide], the midpoint of inhibition, the IC50, lay at 6.9 ± 1.1 µM and the Imax was -102 ± 3%.

For the compound `O=C(NCc1cccnc1)c1cnc2[nH]nc(-c3ccccc3)c2n1` [JS-7, 3-phenyl-N-(pyridin-3-ylmethyl)-1H-pyrazolo[3,4-b]pyrazine-5-carboxamide], the half-maximal inhibitory concentration (IC50) worked out at 16 ± 1.3 µM and the Imax was -122 ± 11%.

Regarding `Cc1nn2c(c1-c1ccccc1OCc1ccccc1)N(C(=O)Cc1ccc3c(c1)OCO3)CCC2` [JS-8, 2-(benzo[d][1,3]dioxol-5-yl)-1-(3-(2-(benzyloxy)phenyl)-2-methyl-6,7-dihydropyrazolo[1,5-a]pyrimidin-4(5H)-yl)ethan-1-one], the half-inhibitory concentration (IC50) was 9.1 ± 1.4 µM, the “Inhibition” value is “inhibited hNpr2 with similar potency to hNpr1; also recorded: antagonizes natriuretic peptide-induced activation” and the Imax was -127 ± 13%.

For `Cc1nn2c(c1-c1ccccc1OCc1ccccc1)N(C(=O)Cc1ccccn1)CCC2` [JS-9, 1-(3-(2-(benzyloxy)phenyl)-2-methyl-6,7-dihydropyrazolo[1,5-a]pyrimidin-4(5H)-yl)-2-(pyridin-2-yl)ethan-1-one], it took 20 ± 16 µM to reach half-maximal inhibition (IC50) and the Imax was -102 ± 16%.

As to `Cc1nn2c(c1-c1ccccc1Oc1ccccc1)N(C(=O)Cc1ccc3c(c1)OCO3)CCC2` [JS-10, 2-(benzo[d][1,3]dioxol-5-yl)-1-(2-methyl-3-(2-phenoxyphenyl)-6,7-dihydropyrazolo[1,5-a]pyrimidin-4(5H)-yl)ethan-1-one], the IC50 was found to be 5.4 ± 1.4 µM and the Imax is -86 ± 5%.

As to `Cc1cc(CNC(=O)c2ccc3c(c2)n(CC2CC2)c(=O)n3C2CCCCC2)on1` [JS-11, 1-cyclohexyl-3-(cyclopropylmethyl)-N-((3-methylisoxazol-5-yl)methyl)-2-oxo-2,3-dihydro-1H-benzo[d]imidazole-5-carboxamide], the IC50 amounted to 5 ± 1.1 µM, the “Inhibition” value was “inhibited hNpr2 with similar potency to hNpr1; also recorded: antagonizes natriuretic peptide-induced activation” and the Imax is -97 ± 4%.

For `COc1ccc(C2(C(=O)N3CCC4(CC3)c3nccn3-c3ccccc3CN4C)CC2)cc1` [JS-12, (1-(4-methoxyphenyl)cyclopropyl)(5-methyl-5,6-dihydrospiro[benzo[f]imidazo[1,2-a][1,4]diazepine-4,4′-piperidin]-1′-yl)methanone], it took 5.7 ± 1.1 µM to reach half-maximal inhibition (IC50) and the Imax was -96 ± 4%.

Turning to `N#Cc1ccccc1CN1CCCC(C(=O)NCc2ccccc2)CCNC(=O)CC1` (stereo not shown) [JS-13, N-benzyl-1-(2-cyanobenzyl)-4-oxo-1,5-diazacycloundecane-8-carboxamide], the half-maximal inhibitory concentration (IC50) was 5.9 ± 1.3 µM and the Imax is -108 ± 8%.

For `CN(Cc1ccccc1)C(=O)c1cn2ccnc(-c3ccccc3)c2n1` [JS-14, N-benzyl-N-methyl-8-phenylimidazo[1,2-a]pyrazine-2-carboxamide], the 50% inhibitory concentration (IC50) amounted to 20 ± 1.1 µM and the Imax was -91 ± 8%.
